Source: the CombiSolv-Exp solvation set (Vermeire and Green 2021)

Assay: solvent given as SMILES
[1] = in CCCCCCCCC=CCCCCCCCC(=O)OCC(COC(=O)CCCCCCCC=CCCCCCCCC)OC(=O)CCCCCCCC=CCCCCCCCC

O=C(O)Cc1ccccc1Nc1c(Cl)cccc1Cl
solvation free energy, 298 K (in C1COCCO1): -19.7 kcal/mol
solvation free energy, 298 K (in CCCCCO): -18.4 kcal/mol
solvation free energy, 298 K (in CCO): -18.5 kcal/mol
solvation free energy, 298 K (in CN(C)C=O): -20 kcal/mol
solvation free energy, 298 K (in CO): -18.5 kcal/mol
solvation free energy, 298 K (in Clc1ccccc1): -17.7 kcal/mol
solvation free energy, 298 K (in NC=O): -17.8 kcal/mol

CC(C)(Cl)Cl
solvation free energy, 298 K (in O): -0.43 kcal/mol

CCNc1nc(Cl)nc(NC(C)C)n1
solvation free energy, 298 K (in O): -9.69 kcal/mol

CC(O)CC(C)(C)C (stereo not drawn)
solvation free energy, 298 K (in CCCCCCCC): -5.41 kcal/mol
solvation free energy, 298 K (in CCCCCCCCCC): -5.33 kcal/mol

Cc1ccc(C)c2ccccc12
solvation free energy, 298 K (in O): -2.82 kcal/mol

Oc1ccc2ccccc2c1
solvation free energy, 298 K (in Brc1ccccc1): -10.4 kcal/mol
solvation free energy, 298 K (in CC(C)CC(C)(C)C): -8.21 kcal/mol
solvation free energy, 298 K (in CCCCCC): -8.46 kcal/mol
solvation free energy, 298 K (in CCCCCCC): -8.53 kcal/mol
solvation free energy, 298 K (in CCCCCCCC): -8.63 kcal/mol
solvation free energy, 298 K (in CCCCCCCCCC): -8.61 kcal/mol
solvation free energy, 298 K (in ClC(Cl)(Cl)Cl): -9.45 kcal/mol
solvation free energy, 298 K (in ClC(Cl)Cl): -10.5 kcal/mol
solvation free energy, 298 K (in Clc1ccccc1): -10.3 kcal/mol
solvation free energy, 298 K (in O): -8.12 kcal/mol

O=C(Oc1ccccc1)Oc1ccccc1
solvation free energy, 298 K (in CC(C)CO): -11.2 kcal/mol
solvation free energy, 298 K (in CC(C)O): -11.3 kcal/mol
solvation free energy, 298 K (in CCC(C)O): -11.2 kcal/mol
solvation free energy, 298 K (in CCCCO): -11.4 kcal/mol
solvation free energy, 298 K (in CCCO): -11.5 kcal/mol
solvation free energy, 298 K (in CCO): -11.6 kcal/mol
solvation free energy, 298 K (in CO): -11.8 kcal/mol

C=CC
solvation free energy, 298 K (in C1CCC2CCCCC2C1): -1.43 kcal/mol
solvation free energy, 298 K (in C1COCCO1): -1.36 kcal/mol
solvation free energy, 298 K (in CC1COC(=O)O1): -0.97 kcal/mol
solvation free energy, 298 K (in CC(C)(C)O): -1.35 kcal/mol
solvation free energy, 298 K (in CC(C)CC(C)(C)C): -1.61 kcal/mol
solvation free energy, 298 K (in CC(C)CCO): -1.31 kcal/mol
solvation free energy, 298 K (in CC(C)CO): -1.3 kcal/mol
solvation free energy, 298 K (in CC(C)O): -1.32 kcal/mol
solvation free energy, 298 K (in CCC(C)(C)O): -1.39 kcal/mol
solvation free energy, 298 K (in CCC(C)=O): -1.54 kcal/mol
solvation free energy, 298 K (in CCC(C)CO): -1.3 kcal/mol
solvation free energy, 298 K (in CCC(C)O): -1.32 kcal/mol
solvation free energy, 298 K (in CCC(O)CC): -1.31 kcal/mol
solvation free energy, 298 K (in CCCC(C)O): -1.31 kcal/mol
solvation free energy, 298 K (in CCCCC): -1.79 kcal/mol
solvation free energy, 298 K (in CCCCCC): -1.75 kcal/mol
solvation free energy, 298 K (in CCCCCCC): -1.74 kcal/mol
solvation free energy, 298 K (in CCCCCCCC): -1.71 kcal/mol
solvation free energy, 298 K (in CCCCCCCCC): -1.7 kcal/mol
solvation free energy, 298 K (in CCCCCCCCCC): -1.68 kcal/mol
solvation free energy, 298 K (in CCCCCCCCCCCCCCCC): -1.32 kcal/mol
solvation free energy, 298 K (in CCCCCCCCO): -1.25 kcal/mol
solvation free energy, 298 K (in CCCCCO): -1.32 kcal/mol
solvation free energy, 298 K (in CCCCO): -1.41 kcal/mol
solvation free energy, 298 K (in CCCO): -1.35 kcal/mol
solvation free energy, 298 K (in CCOC(C)=O): -1.51 kcal/mol
solvation free energy, 298 K (in CN1CCCC1=O): -1.24 kcal/mol
solvation free energy, 298 K (in CN(C)C=O): -1.3 kcal/mol
solvation free energy, 298 K (in CN(C)P(=O)(N(C)C)N(C)C): -1.39 kcal/mol
solvation free energy, 298 K (in CO): -1.3 kcal/mol
solvation free energy, 298 K (in COCCOCCOCCOC): -1.06 kcal/mol
solvation free energy, 298 K (in CS(C)=O): -0.78 kcal/mol
solvation free energy, 298 K (in Cc1ccc(C)cc1): -1.58 kcal/mol
solvation free energy, 298 K (in Cc1cccc(C)c1): -1.58 kcal/mol
solvation free energy, 298 K (in Cc1ccccc1C): -1.56 kcal/mol
solvation free energy, 298 K (in ClC(Cl)(Cl)Cl): -1.84 kcal/mol
solvation free energy, 298 K (in Nc1ccccc1): -1.08 kcal/mol
solvation free energy, 298 K (in O): 1.22 kcal/mol
solvation free energy, 298 K (in OCCCOCCCO): -0.76 kcal/mol
solvation free energy, 298 K (in OCCO): -0.45 kcal/mol
solvation free energy, 298 K (in OCc1ccccc1): -1.09 kcal/mol
solvation free energy, 298 K (in c1ccccc1): -1.64 kcal/mol

CC(=O)c1cccnc1
solvation free energy, 298 K (in O): -8.26 kcal/mol

CCCCCCCCBr
solvation free energy, 298 K (in O): 0.52 kcal/mol

ClC1C(Cl)C(Cl)C(Cl)C(Cl)C1Cl (stereo not drawn)
solvation free energy, 298 K [1]: -11.2 kcal/mol
solvation free energy, 298 K (in CCCCCCCCO): -10.9 kcal/mol

CC(C)CCOC(=O)c1ccccc1C(=O)OCCC(C)C
solvation free energy, 298 K (in O): -6.88 kcal/mol

CCc1ccc2c(c1)C(=O)c1ccccc1C2=O
solvation free energy, 298 K (in C1CCCCC1): -12.2 kcal/mol
solvation free energy, 298 K (in C1CCOC1): -14.2 kcal/mol
solvation free energy, 298 K (in C1COCCO1): -14.1 kcal/mol
solvation free energy, 298 K (in CC1CCCCC1): -12.1 kcal/mol
solvation free energy, 298 K (in CC(C)CC(C)(C)C): -11.6 kcal/mol
solvation free energy, 298 K (in CC(C)CCO): -12.2 kcal/mol
solvation free energy, 298 K (in CC(C)CO): -12.1 kcal/mol
solvation free energy, 298 K (in CC(C)O): -12.1 kcal/mol
solvation free energy, 298 K (in CC(C)OC(C)C): -12.4 kcal/mol
solvation free energy, 298 K (in CCC(C)O): -12.3 kcal/mol
solvation free energy, 298 K (in CCCC(C)O): -12.3 kcal/mol
solvation free energy, 298 K (in CCCCC(CC)CO): -12.4 kcal/mol
solvation free energy, 298 K (in CCCCCC): -11.9 kcal/mol
solvation free energy, 298 K (in CCCCCCC): -12 kcal/mol
solvation free energy, 298 K (in CCCCCCCC): -12 kcal/mol
solvation free energy, 298 K (in CCCCCCCCCC): -12 kcal/mol
solvation free energy, 298 K (in CCCCCCCCO): -12.5 kcal/mol
solvation free energy, 298 K (in CCCCCCCO): -12.5 kcal/mol
solvation free energy, 298 K (in CCCCCCO): -12.4 kcal/mol
solvation free energy, 298 K (in CCCCCO): -12.4 kcal/mol
solvation free energy, 298 K (in CCCCCl): -13.5 kcal/mol
solvation free energy, 298 K (in CCCCO): -12.3 kcal/mol
solvation free energy, 298 K (in CCCCOC(C)=O): -13.4 kcal/mol
solvation free energy, 298 K (in CCCCOCCCC): -12.6 kcal/mol
solvation free energy, 298 K (in CCCO): -12.1 kcal/mol
solvation free energy, 298 K (in CCO): -12.6 kcal/mol
solvation free energy, 298 K (in CCOC(C)=O): -13.5 kcal/mol
solvation free energy, 298 K (in CO): -12.1 kcal/mol
solvation free energy, 298 K (in COC(C)=O): -13.7 kcal/mol
solvation free energy, 298 K (in O): -6.57 kcal/mol

ClC1=C(Cl)C2(Cl)C3C4OC4C(Cl)C3C1(Cl)C2(Cl)Cl (stereo not drawn)
solvation free energy, 298 K [1]: -13 kcal/mol
solvation free energy, 298 K (in CCCCCCCCO): -11.7 kcal/mol

CCCOCCOC(=O)c1ccccc1C(=O)OCCOCCC
solvation free energy, 298 K (in O): -13.2 kcal/mol

CCCCCCCCCCCCCCCCCCCCCC
solvation free energy, 298 K (in CC(=O)N(C)C): -15 kcal/mol
solvation free energy, 298 K (in CC(C)(C)O): -13.3 kcal/mol
solvation free energy, 298 K (in CCC(C)=O): -13.6 kcal/mol
solvation free energy, 298 K [1]: -13.4 kcal/mol
solvation free energy, 298 K (in CCCCOC(C)=O): -14.1 kcal/mol
solvation free energy, 298 K (in CCOC(C)=O): -13.7 kcal/mol
solvation free energy, 298 K (in CN(C)C=O): -15 kcal/mol
solvation free energy, 298 K (in COC(C)(C)C): -14.9 kcal/mol
solvation free energy, 298 K (in COC(C)=O): -13 kcal/mol
solvation free energy, 298 K (in O): 4.87 kcal/mol

CC=C(C)C=CC=C(C)C
solvation free energy, 298 K (in O): -0.55 kcal/mol

ClC(Cl)(Cl)Br
solvation free energy, 298 K (in CS(C)=O): -4.78 kcal/mol

C=CC=CC=C
solvation free energy, 298 K (in C=CCCCCCCCCCCCCCC): -3.78 kcal/mol
solvation free energy, 298 K (in O): 0.2 kcal/mol

CCSSCC
solvation free energy, 298 K (in O): -1.54 kcal/mol

CC(=O)C(C)=O
solvation free energy, 298 K (in O): -4.3 kcal/mol

CC1=CC(=O)C(C(C)C)CC1 (stereo not drawn)
solvation free energy, 298 K (in O): -4.51 kcal/mol

CSC
solvation free energy, 298 K (in C=C(C)CC(C)(C)C): -3.04 kcal/mol
solvation free energy, 298 K (in C=CCCCC): -3.07 kcal/mol
solvation free energy, 298 K (in CC(C)CC(C)(C)C): -2.9 kcal/mol
solvation free energy, 298 K (in CCCCCC): -2.97 kcal/mol
solvation free energy, 298 K (in ClC(Cl)(Cl)Cl): -3.6 kcal/mol
solvation free energy, 298 K (in ClC(Cl)Cl): -4.08 kcal/mol
solvation free energy, 298 K (in O): -1.5 kcal/mol
